Measured values as given in ChEMBL document CHEMBL4229547, “Design, synthesis and biological mechanisms research on 1,2,3-triazole derivatives of Jiyuan Oridonin A” (Bioorg Med Chem, 2018).
Active and inactive are the calls of the source. The rule behind the calls is not given here.

Columns and labels:
MGC-803 [1] = assay: Cell cycle arrest in human MGC803 cells assessed as accumulation at G0/G1 phase at 1.5 ug/ml after 48 hrs in presence of N-acetyl cysteine by propidium iodide staining-based flow cytometric method (reference value: 52.5 +/- 3.71%); type: functional
MGC-803 [2] = assay: Induction of apoptosis in human MGC803 cells assessed as upregulation of p21 levels at 1.5 to 6 ug/ml after 48 hrs by Western blot method; type: functional, cell-based
MGC-803 [3] = assay: Induction of apoptosis in human MGC803 cells assessed as viable cells at 1.5 ug/ml by annexin V-FITC/propidium iodide staining-based flow cytometric method (reference value: 97.6%); type: functional; settings: read-out: Activity
ECa-109 cell line = assay: Antiproliferative activity against human ECA109 cells after 48 hrs by MTT assay; type: functional, cell-based; settings: ECa-109, 48 h
HGC-27 = assay: Antiproliferative activity against human HGC27 cells after 48 hrs by MTT assay; type: functional, cell-based; settings: HGC-27, 48 h
MGC-803 [4] = assay: Induction of apoptosis in human MGC803 cells assessed as upregulation of cleaved caspase-9 levels after 48 hrs by Western blot method; type: functional, cell-based
MGC-803 [5] = assay: Induction of apoptosis in human MGC803 cells assessed as necrotic cells at 3 ug/ml in presence of N-acetyl cysteine by annexin V-FITC/propidium iodide staining-based flow cytometric method (reference value: 1%); type: functional
MGC-803 [6] = assay: Cell cycle arrest in human MGC803 cells assessed as accumulation at G2/M phase at 3 ug/ml after 48 hrs by propidium iodide staining-based flow cytometric method (reference value: 17.2 +/- 1.35%); type: functional
MGC-803 [7] = assay: Induction of apoptosis in human MGC803 cells assessed as necrotic cells at 3 ug/ml by annexin V-FITC/propidium iodide staining-based flow cytometric method (reference value: 1%); type: functional
MGC-803 [8] = assay: Induction of apoptosis in human MGC803 cells assessed as increase in cell debris after 24 hrs by inverted microscopic method; type: functional, cell-based
MGC-803 [9] = assay: Induction of apoptosis in human MGC803 cells assessed as late apoptotic cells at 1.5 ug/ml in presence of N-acetyl cysteine by annexin V-FITC/propidium iodide staining-based flow cytometric method (reference value: 0.1%); type: functional
MGC-803 [10] = assay: Cell cycle arrest in human MGC803 cells assessed as accumulation at G2/M phase at 1.5 ug/ml after 48 hrs by propidium iodide staining-based flow cytometric method (reference value: 17.2 +/- 1.35%); type: functional
MGC-803 [11] = assay: Induction of apoptosis in human MGC803 cells assessed as late apoptotic cells at 1.5 ug/ml by annexin V-FITC/propidium iodide staining-based flow cytometric method (reference value: 0.1%); type: functional
MGC-803 [12] = assay: Induction of apoptosis in human MGC803 cells assessed as late apoptotic cells at 3 ug/ml by annexin V-FITC/propidium iodide staining-based flow cytometric method (reference value: 0.1%); type: functional
MGC-803 [13] = assay: Induction of apoptosis in human MGC803 cells assessed as early apoptotic cells at 1.5 ug/ml by annexin V-FITC/propidium iodide staining-based flow cytometric method (reference value: 1.3%); type: functional
MGC-803 [14] = assay: Induction of apoptosis in human MGC803 cells assessed as downregulation of survivin levels at 1.5 to 6 ug/ml after 48 hrs by Western blot method; type: functional, cell-based
MGC-803 [15] = assay: Disruption of mitochondrial membrane potential in human MGC803 cells at 1.5 to 3 ug/ml after 24 hrs in presence of N-acetyl cysteine by JC1 staining-based fluorescence microscopic method; type: functional, cell-based
MGC-803 [16] = assay: Induction of apoptosis in human MGC803 cells assessed as decrease in ratio of Bcl-2/Bax at 1.5 to 6 ug/ml after 48 hrs by Western blot method; type: functional, cell-based
MGC-803 [17] = assay: Induction of apoptosis in human MGC803 cells assessed as upregulation of cytochrome c levels in cytoplasm at 1.5 to 6 ug/ml after 48 hrs by Western blot method; type: functional, cell-based
MGC-803 [18] = assay: Cell cycle arrest in human MGC803 cells assessed as accumulation at S phase at 1.5 ug/ml after 48 hrs in presence of N-acetyl cysteine by propidium iodide staining-based flow cytometric method (reference value: 32.5 +/- 2.25%); type: functional
MGC-803 [19] = assay: Induction of apoptosis in human MGC803 cells assessed as early apoptotic cells at 1.5 ug/ml in presence of N-acetyl cysteine by annexin V-FITC/propidium iodide staining-based flow cytometric method (reference value: 1.3%); type: functional
MGC-803 [20] = assay: Induction of apoptosis in human MGC803 cells assessed as necrotic cells at 1.5 ug/ml by annexin V-FITC/propidium iodide staining-based flow cytometric method (reference value: 1%); type: functional
SMMC-7721 = assay: Antiproliferative activity against human SMMC7721 cells after 48 hrs by MTT assay; type: functional, cell-based; settings: SMMC-7721, 48 h
MCF7 = assay: Antiproliferative activity against human MCF7 cells after 48 hrs by MTT assay; type: functional, cell-based; settings: MCF7, 48 h
MGC-803 [21] = assay: Cell cycle arrest in human MGC803 cells assessed as accumulation at G2/M phase at 1.5 ug/ml after 48 hrs in presence of N-acetyl cysteine by propidium iodide staining-based flow cytometric method (reference value: 17.2 +/- 1.35%); type: functional
MGC-803 [22] = assay: Cell cycle arrest in human MGC803 cells assessed as accumulation at S phase at 3 ug/ml after 48 hrs in presence of N-acetyl cysteine by propidium iodide staining-based flow cytometric method (reference value: 32.5 +/- 2.25%); type: functional
MGC-803 [23] = assay: Induction of apoptosis in human MGC803 cells assessed as necrotic cells at 1.5 ug/ml in presence of N-acetyl cysteine by annexin V-FITC/propidium iodide staining-based flow cytometric method (reference value: 1%); type: functional
MGC-803 [24] = assay: Induction of apoptosis in human MGC803 cells assessed as viable cells at 3 ug/ml by annexin V-FITC/propidium iodide staining-based flow cytometric method (reference value: 97.6%); type: functional; settings: read-out: Activity
MGC-803 [25] = assay: Antiproliferative activity against human MGC803 cells at 16 to 32 ug/ml after 48 hrs by MTT assay relative to control; type: functional
MGC-803 [26] = assay: Induction of apoptosis in human MGC803 cells assessed as upregulation of p53 levels at 1.5 to 6 ug/ml after 48 hrs by Western blot method; type: functional, cell-based
MGC-803 [27] = assay: Induction of apoptosis in human MGC803 cells assessed as decrease in cell number after 24 hrs by inverted microscopic method; type: functional, cell-based
MGC-803 [28] = assay: Cell cycle arrest in human MGC803 cells assessed as accumulation at S phase at 3 ug/ml after 48 hrs by propidium iodide staining-based flow cytometric method (reference value: 32.5 +/- 2.25%); type: functional
PC-3 = assay: Antiproliferative activity against human PC3 cells after 48 hrs by MTT assay; type: functional, cell-based; settings: PC-3, 48 h
MGC-803 [29] = assay: Induction of reactive oxygen species formation in human MGC803 cells at 3 ug/ml after 3 hrs by DCFH-DA staining-based flow cytometry (reference value: 7.1%); type: functional
MGC-803 [30] = assay: Induction of apoptosis in human MGC803 cells assessed as increase in apoptotic bodies formation at 1.5 to 6 ug/ml after 24 hrs by Hoechst 33258 staining-based fluorescence microscopic method; type: functional, cell-based

In the case of `C=C1C(=O)[C@]23[C@H](O)[C@H]1C[C@H](O)[C@H]2[C@]12CCCC(C)(C)[C@H]1C[C@H]3O[C@@H]2OCCc1cn(Cc2ccc(Cl)cc2)nn1`, the Activity (MGC-803 [1]) is reported as 55.4%, the Activity (MGC-803 [2]) is reported as “Active” and the viability at 1.5 µg/mL (MGC-803 [3]) is reported as 91%. For the same molecule, the IC50 (ECa-109 cell line) was 2.7 µM, the IC50 (HGC-27) was 2.97 µM and the Activity (MGC-803 [4]) was “Dose-dependent effect”. It also gave an Activity (MGC-803 [5]) of 0.6%, an Activity (MGC-803 [6]) of 40.3% and an Activity (MGC-803 [7]) of 1.3%. The Activity (MGC-803 [8]) was “Dose-dependent effect”, the Activity (MGC-803 [9]) was 0.1% and the Activity (MGC-803 [10]) was 26.7%. It also gave an Activity (MGC-803 [11]) of 0.3%, an Activity (MGC-803 [12]) of 1.1% and an Activity (MGC-803 [13]) of 7.8%. The Activity (MGC-803 [14]) was “Active”, the Activity (MGC-803 [15]) was “inactive” and the Activity (MGC-803 [16]) was “Active”. For the same molecule, the Activity (MGC-803 [17]) was “Active”, the Activity (MGC-803 [18]) was 29.1% and the Activity (MGC-803 [19]) was 4.2%. The Activity (MGC-803 [20]) was 0.5%, the IC50 (SMMC-7721) was 4.44 µM and the IC50 (MCF7) was 4.76 µM. For the same molecule, the Activity (MGC-803 [21]) was 16.1%, the Activity (MGC-803 [22]) was 33.2% and the Activity (MGC-803 [23]) was 0.6%. The viability at 3 µg/mL (MGC-803 [24]) was 37.4%, the “inhibition (INH)” value (MGC-803 [25]) was 90% and the Activity (MGC-803 [26]) was “Active”. The Activity (MGC-803 [27]) was “Dose-dependent effect”, the Activity (MGC-803 [28]) was 29.6% and the IC50 (PC-3) was 4.02 µM. For the same molecule, the Activity (MGC-803 [29]) was 13.6% and the Activity (MGC-803 [30]) was “Active”.
